Test results: patent publication US9562044B2, “2-acylaminothiazole derivative or salt thereof” (ASTELLAS PHARMA INC., priority 2013, dated 2017)
Structures can show the parent of a compound that is named as a salt.

The compounds below were run against T1, human c-Mpl receptor (Homo sapiens, UniProt P40238) (assay: Human c-Mpl-introduced Ba/F3 cell proliferative activity). Settings: concentration showing 30% proliferation; 100% = positive control at 1 μM.
T1 construct: expressed in transfected cells
T1 sequence (P40238 26-635): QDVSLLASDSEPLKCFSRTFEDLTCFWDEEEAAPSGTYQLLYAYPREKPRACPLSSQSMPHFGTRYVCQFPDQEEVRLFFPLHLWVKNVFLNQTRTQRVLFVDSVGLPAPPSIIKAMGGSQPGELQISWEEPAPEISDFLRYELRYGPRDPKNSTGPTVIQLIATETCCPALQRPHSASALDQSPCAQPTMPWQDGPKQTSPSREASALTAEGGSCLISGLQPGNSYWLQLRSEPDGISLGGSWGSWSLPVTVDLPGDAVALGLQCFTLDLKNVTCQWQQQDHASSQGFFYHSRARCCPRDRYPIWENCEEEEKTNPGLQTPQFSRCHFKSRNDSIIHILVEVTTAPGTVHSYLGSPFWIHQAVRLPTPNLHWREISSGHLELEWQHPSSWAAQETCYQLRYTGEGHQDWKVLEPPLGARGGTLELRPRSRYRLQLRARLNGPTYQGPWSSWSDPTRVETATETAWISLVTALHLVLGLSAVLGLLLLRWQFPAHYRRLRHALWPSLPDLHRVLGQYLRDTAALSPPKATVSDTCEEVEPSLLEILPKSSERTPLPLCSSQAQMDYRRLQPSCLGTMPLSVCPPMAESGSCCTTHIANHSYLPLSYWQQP
Assay type: cell-based
Method: Evaluation of Human c-Mpl-Introduced Ba/F3 Cell Proliferative Activity
The human c-Mpl-introduced Ba/F3 cell proliferative activity was measured by the following method.
As a positive control, 1-(5-{[4-(4-chloro-2-thienyl)-5-{[(2R)-2-methylpyrrolidin-1-yl]methyl}-1,3-thiazol-2-yl]carbamoyl}-3-fluoropyridin-2-yl)piperidine-4-carboxylic acid hydrochloride, which is disclosed as Example 315 in Patent Document 1 and represented by the formula A1, was used. It is known that the compound has a good human c-Mpl-introduced Ba/F3 cell proliferative activity as disclosed in Table 1 of Patent Document 1.
a) Construction of Human c-Mpl Receptor Expression Vector
A human c-mpl receptor gene (GenBank Accession No. M90102.1) was introduced into an expression vector pEF-BOS (Nucleic Acids Res. 18, 5322, 1990).
b) Construction of Cell Stably Expressing Human c-Mpl Receptor
A human c-Mpl receptor expression vector was introduced into a Ba/F3 cell (RIKEN BRC: RCB0805). For the introduction, an electroporation method was used. pEF-BOS-c-mpl (10 μg), pSV2bsr (1 μg, Kaken Pharmaceutical Co., Ltd.) and 1×10^7 Ba/F3 cells were put into a cuvette having a gap width of 0.4 cm, and electroporated under the conditions of 1.5 kV (25 μF) by a Gene Pulser (registered trademark) (BioRad). The cells were cultured in an RPMI-1640 culture medium containing 0.5% WEHI conditioned media (BD Biosciences) and 10% fetal bovine serum for 3 days, and then cultured in an RPMI-1640 culture medium, to which 10 μg/mL blasticidin had been further added, for 30 days to acquire a drug-resistant clone.
c) Measurement of Cell Proliferative Activity
The cells obtained in b) above was cultured in an RPMI-1640 culture medium containing 0.5% WEHI conditioned media, 10% fetal bovine serum, and used. On the day before the experiment, test substances (final concentration of 100 nM to 10 μM) which had been dissolved in a culture medium for assay (RPMI-1640 culture medium containing 10% fetal bovine serum) were added to a 384-well plate (Lot No. 781185, Greiner Bio-One). The cells in the culture medium that had been replaced with a culture medium for assay were dispensed into a 384-well plate, to which the test substances had been added in advance, to 1×10^4 cells/well, and cultured at 37° C. and 5% CO2 overnight. On the experiment day, a solution of a Cell Counting Kit (Dojindo Laboratories) was added to each well of the 384-well plate and cultured at 37° C. and 5% CO2 for about 5 hours. Thereafter, the absorbance (absorption wavelength of 450 nm) of each well was measured using Safire^2™ (TECAN) and used as the index of the number of cells. Further, as a negative control, a well in which the test substance had been not added was prepared.
The absorbance of the well without the test substance was set to 0%, and the absorbance in the case where the positive control was added at a final concentration of 1 μM was set to 100%. From the absorbance in the case where the test substance had been added, a cell proliferation rate (%) was calculated. From the obtained results, the test substance concentration showing 30% proliferation was calculated as an EC30 value by a logistic regression method.

Test Example 2 EC30 [µM] | SMILES
0.35 | C[C@@H]1CCCN1Cc1sc(NC(=O)c2cnc(N3CCC(C(=O)O)CC3)cn2)nc1-c1cc(Cl)cs1 [Example 4, 1-(5-{[4-(4-chloro-2-thienyl)-5-{[(2R)-2-methylpyrrolidin-1-yl]methyl}-1,3-thiazol-2-yl]carbamoyl}pyrazin-2-yl)piperidine-4-carboxylic acid dihydrochloride]
>10 | CC[C@@H]1CCCN1Cc1sc(NC(=O)c2cnc(N3CCC(C(=O)O)CC3)cn2)nc1-c1cc(F)cc(C(F)(F)F)c1 [Example 115]
>10 | CC[C@@H]1CCCN1Cc1sc(NC(=O)c2cnc(N3CCC(C(=O)O)CC3)cn2)nc1-c1ccc(OC)c(C(F)(F)F)c1 [Example 156]
